Experiments:
Type in all cases: cell-based
[1] = tested on: adipose triglyceride lipase (ATGL); test: Western blot of lipolytic enzyme proteins in 3T3-L1 adipocytes; conditions: 2, 20 μg/ml, 1 h, FIGS. 13a, 13b
Description: (§1) Whether the peptide of SEQ ID NO: 2 prepared in Preparation Example 1 promotes the expressions of lipolytic enzyme proteins in adipocytes was tested through protein expression analysis (western blot analysis).
(§2) When 3T3-L1 preadipocytes reached 80% confluence, they were seeded in a 6-well plate at 5×10^5 cells/well and used for the experiment. Two days after reaching confluence, the culture medium was replaced with a differentiation induction medium [DMEM medium containing 10% FBS, 1 μg/ml insulin, 0.5 mM isobutyl methyl xanthine (IBMX) (Sigma, USA), and 1 μM dexamethasone (Sigma, USA)], and differentiation into adipocytes was induced. Two days after induction, preadipocytes were cultured for two days in a medium containing 10% FBS and 10 μg/mL insulin, and then the medium was replaced with a medium containing 10% FBS every two days until preadipocytes differentiated into adipocytes. When differentiation was completed, the medium was replaced with a serum-free medium, and cells were cultured for four hours to induce starvation. Cells were divided into an untreated group (negative control), the peptide of Preparation Example 1 (2, 20 μg/ml)-treatment group, and the TNFα (20 nM)-treatment group (positive control), and then treated with the substances at predetermined concentrations and cultured for one hour. Then, the cells in each treatment group were lysed by adding a lysis buffer. After lysis, proteins obtained by centrifugation at 4° C. and 12,000 rpm for 30 minutes were quantified using a BCA kit. Proteins were subjected to sodium dodecyl sulfate-polyacrylamide gel electrophoresis (SDS-PAGE) and electrotransferred to a membrane. The protein-attached membrane was blocked with 5% skim milk treatment, and then the primary antibody was reacted overnight at 4° C. The membrane was washed with PBS-T, the secondary antibody was reacted at room temperature for one hour, the membrane was washed again with PBS-T, and then visualization was carried out by using Gel Doc (Bio-Rad, Hercules, CA, USA) with a western detection reagent (Elpis Biotech, Daejeon, Korea). […]

perilipin (PLIN) = test: as above; conditions: 2, 20 μg/ml, 1 h, FIGS. 13a, 13b
Description: as §1, §2

[2] = tested on: phosphorylated hormone-sensitive lipase (pHSL); test: as above; conditions: 2, 20 μg/ml, 1 h, FIGS. 13a, 13b
Description: as §1, §2

3T3-L1 adipocytes = test: Glycerol release assay (lipolysis) in 3T3-L1 adipocytes; conditions: 2, 20 μg/ml, 48 h, FIG. 14
Description: The release amount of glycerol, a lipolysis product, was analyzed to determine whether the peptide of SEQ ID NO: 2 prepared in Preparation Example 1 promotes lipolysis in adipocytes.
When 3T3-L1 preadipocytes reached 80% confluence, they were seeded in a 6-well plate at 5×10^5 cells/well and used for the experiment. Two days after reaching confluence, the culture medium was replaced with a differentiation induction medium [DMEM medium containing 10% FBS, 1 μg/ml insulin, 0.5 mM isobutyl methyl xanthine (IBMX) (Sigma, USA), and 1 μM dexamethasone (Sigma, USA)], and differentiation into adipocytes was induced. Two days after induction, preadipocytes were cultured for two days in a medium containing 10% FBS and 10 μg/mL insulin, and then the medium was replaced with a medium containing 10% FBS every two days until preadipocytes differentiated into adipocytes. When differentiation was completed, the medium was replaced with a serum-free medium, and cells were cultured for four hours to induce starvation. Cells were divided into an untreated group (negative control), the peptide of SEQ ID NO: 2 of Preparation Example 1 (2, 20 μg/ml)-treatment group, and the TNF-α (20 nM)-treatment group (positive control), and then treated with the substances at predetermined concentrations and cultured for 48 hours. Then, the supernatants were obtained. […]

phospho-AKT = test: Western blot of insulin signals in 3T3-L1 adipocytes (peptide of SEQ ID NO: 2); conditions: 2, 20 μg/ml, FIGS. 15a, 15b
Description: (§3) When 3T3-L1 preadipocytes reached 80% confluence, they were seeded in a 6-well plate at 5×10^5 cells/well and used for the experiment. Two days after reaching confluence, the culture medium was replaced with a differentiation induction medium [DMEM medium containing 10% FBS, 1 μg/ml insulin, 0.5 mM isobutyl methyl xanthine (IBMX) (Sigma, USA), and 1 μM dexamethasone (Sigma, USA)], and differentiation into adipocytes was induced. Two days after induction, preadipocytes were cultured for two days in a medium containing 10% FBS and 10 μg/mL insulin, and then the medium was replaced with a medium containing 10% FBS every two days until preadipocytes differentiated into adipocytes. When differentiation was completed, the medium was replaced with a serum-free medium, and cells were cultured for four hours to induce starvation. To the cells, each of rhTNF-α (2 nM), insulin (1 μg/ml), and the peptide of SEQ ID NO: 2 of Preparation Example 1 (2, 20 μg/ml) was added and the cells were cultured for one hour. The cells were cultured for 30 minutes, the cells of each treatment group were lysed by adding a lysis buffer, and then centrifuged at 4° C. and 12,000 rpm for 30 minutes. The obtained proteins were quantified using a BCA kit. Proteins were subjected to sodium dodecyl sulfate-polyacrylamide gel electrophoresis (SDS-PAGE) and electrotransferred to a membrane. The protein-attached membrane was blocked with 5% skim milk treatment, and then the primary antibody was reacted overnight at 4° C. The membrane was washed with PBS-T, the secondary antibody was reacted at room temperature for one hour, the membrane was washed again with PBS-T, and then visualization was carried out by using Gel Doc (Bio-Rad, Hercules, CA, USA) with a western detection reagent (Elpis Biotech, Daejeon, Korea). The antibodies used in the experiment are as follows: anti-phospho-IRS (Ser302) antibody (Cell signaling technology (CST), USA), anti-phospho-IRS (Tyr632) antibody (Cell signaling technology (CST), USA), anti-phospho-AKT antibody (Cell signaling technology (CST), USA), anti-phospho-AMPK antibody (Cell signaling technology (CST), USA), and anti-α-tubulin antibody (Santa Cruz Biotechnology, USA). […] In addition, it was confirmed that when the peptide of the present invention was treated, the phosphorylation of AMPK, an insulin sensitivity-increasing signaling protein, increased. Meanwhile, it was confirmed that phosphorylation of Ser302 of an insulin receptor substrate (IRS) decreased under an insulin resistance-inducing environment by the treatment of the present peptide, and thus insulin resistance was inhibited.

phospho-AMPK = test: as above; conditions: 2, 20 μg/ml, FIGS. 15a, 15b
Description: as §3

phospho-IRS (Ser302) = test: as above; conditions: rhTNF-α 2 nM, 2, 20 μg/ml, FIGS. 15a, 15b
Description: as §3

phospho-IRS (Tyr632) = test: as above; conditions: 2, 20 μg/ml, FIGS. 15a, 15b
Description: as §3

## KGSATGWMA [peptide of SEQ ID NO: 2]
[1]
  expression of adipose triglyceride lipase (ATGL): increased
Perilipin (PLIN)
  expression of perilipin (PLIN): increased
[2]
  expression of phosphorylated hormone-sensitive lipase (pHSL): increased
3T3-L1 adipocytes
  release amount of glycerol, a lipolysis product: increased in a treated peptide concentration-dependent manner
phospho-AKT
  activation of phosphorylation-AKT: promoted
phospho-AMPK
  phosphorylation of AMPK: increased
phospho-IRS (Ser302)
  phosphorylation of Ser302 of insulin receptor substrate (IRS) under an insulin resistance-inducing environment: decreased
phospho-IRS (Tyr632)
  phosphorylation of Tyr632 of insulin receptor substrate (IRS): promoted
